Patent US20240041042A1, “1-(PYRIDYL)-5-AZINYLPYRAZOLE DERIVATIVES, AND THEIR USE FOR CONTROL OF UNDESIRED PLANT GROWTH” (Bayer Aktiengesellschaft, priority 2020, published 2024)

What was measured:
Type in all cases: in vivo
[1] = tested on: Abutilon theophrasti (ABUTH); assay: Post-emergence herbicidal action against ABUTH; settings: visual rating about 3 weeks after treatment vs untreated controls (100% = plants have died, 0% = like control plants)
Method in brief: (§1)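 Post-emergence greenhouse spray, one-leaf stage, 600 l/ha water plus 0.5% additive; WP or EC formulations; application rates 320 g/ha or lower. Visual % damage vs untreated controls at ~3 weeks.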

[2] = tested on: Pharbitis purpurea (PHBPU); assay: Pre-emergence herbicidal action against PHBPU
Method in brief: (§2)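 Greenhouse pot trial: seeds sown, soil-covered, sprayed before emergence with compound in water (0.5% additive; 600 l/ha; ≤320 g/ha). Scoring visual, ~3 weeks, 0–100% scale vs untreated.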

[3] = tested on: Echinochloa crus-galli (ECHCG); assay: Pre-emergence herbicidal action against ECHCG
Method in brief: as §2

[4] = tested on: Amaranthus retroflexus (AMARE); assay: Post-emergence herbicidal action against AMARE
Method in brief: as §1

[5] = tested on: Matricaria inodora (MATIN); assay: Pre-emergence herbicidal action against MATIN
Method in brief: as §2

Lolium rigidum (LOLRI) = assay: Pre-emergence herbicidal action against LOLRI
Method in brief: as §2

[6] = tested on: Verconica persica (VERPE); assay: Pre-emergence herbicidal action against VERPE
Method in brief: as §2

[7] = tested on: Verconica persica (VERPE); assay: Post-emergence herbicidal action against VERPE
Method in brief: as §1

Viola tricolor (VIOTR) = assay: Post-emergence herbicidal action against VIOTR
Method in brief: as §1

[8] = tested on: Alopecurus myosuroides (ALOMY); assay: Pre-emergence herbicidal action against ALOMY; settings: scored visually after about 3 weeks, 100% = plants have died
Method in brief: as §2

[9] = 80 g/ha, visual rating about 3 weeks after treatment vs untreated controls (100% = plants have died, 0% = like control plants)
[10] = 320 g/ha, visual rating about 3 weeks after treatment

O=C(O)COc1nn(-c2ncccc2F)c(-c2ccc(F)nc2)c1Br [Example I-08]
90%: Post-emergence action against ABUTH in % ([1]; 320 g/ha) | Post-emergence action against AMARE in % [4, 10] | Post-emergence action against VERPE in % ([7]; 320 g/ha, VERPE) | Post-emergence action against VERPE in % ([7]; dosage 80 g/ha)
100%: Pre-emergence action against ECHCG in % ([3]; dosage 320 g/ha) | Pre-emergence action against MATIN in % ([5]; dosage 320 g/ha) | Pre-emergence action against LOLRI in % (Lolium rigidum (LOLRI); dosage 320 g/ha) | Pre-emergence action against VERPE in % ([6]; dosage 320 g/ha) | Pre-emergence action against ALOMY ([8]; 80 g/ha) | Pre-emergence action against ALOMY ([8]; 320 g/ha)
80%: Post-emergence action against ABUTH in % ([1]; 80 g/ha) | Pre-emergence action against PHBPU in % ([2]; dosage 320 g/ha) | Pre-emergence action against ECHCG in % ([3]; dosage 80 g/ha) | Post-emergence action against AMARE in % [4, 9] | Pre-emergence action against LOLRI in % (Lolium rigidum (LOLRI); dosage 80 g/ha) | Post-emergence action against VIOTR in % (Viola tricolor (VIOTR); 80 g/ha) | Post-emergence action against VIOTR in % (Viola tricolor (VIOTR); 320 g/ha)

COCCOC(=O)COc1nn(-c2ccccn2)c(-c2ccc(F)nc2)c1Br [Example I-96]
80%: Pre-emergence action against ECHCG in % ([3]; dosage 80 g/ha) | Post-emergence action against AMARE in % [4, 9] | Post-emergence action against AMARE in % [4, 10] | Post-emergence action against VERPE in % ([7]; dosage 80 g/ha) | Pre-emergence action against ALOMY ([8]; 80 g/ha)
90%: Post-emergence action against ABUTH in % ([1]; 80 g/ha) | Post-emergence action against ABUTH in % ([1]; 320 g/ha) | Pre-emergence action against PHBPU in % ([2]; dosage 80 g/ha) | Pre-emergence action against PHBPU in % ([2]; dosage 320 g/ha) | Pre-emergence action against LOLRI in % (Lolium rigidum (LOLRI); dosage 80 g/ha) | Pre-emergence action against VERPE in % ([6]; dosage 80 g/ha) | Pre-emergence action against VERPE in % ([6]; dosage 320 g/ha) | Post-emergence action against VERPE in % ([7]; 320 g/ha, VERPE) | Post-emergence action against VIOTR in % (Viola tricolor (VIOTR); 80 g/ha) | Post-emergence action against VIOTR in % (Viola tricolor (VIOTR); 320 g/ha)
100%: Pre-emergence action against ECHCG in % ([3]; dosage 320 g/ha) | Pre-emergence action against MATIN in % ([5]; dosage 320 g/ha) | Pre-emergence action against LOLRI in % (Lolium rigidum (LOLRI); dosage 320 g/ha) | Pre-emergence action against ALOMY ([8]; 320 g/ha)

COC(=O)COc1nn(-c2ncccc2F)c(-c2cncc(F)c2)c1C1CC1 [Example I-167]
80%: Post-emergence action against ABUTH in % ([1]; 80 g/ha) | Post-emergence action against ABUTH in % ([1]; 320 g/ha) | Post-emergence action against AMARE in % [4, 9] | Post-emergence action against AMARE in % [4, 10] | Post-emergence action against VERPE in % ([7]; 320 g/ha, VERPE) | Post-emergence action against VERPE in % ([7]; dosage 80 g/ha) | Post-emergence action against VIOTR in % (Viola tricolor (VIOTR); 80 g/ha) | Post-emergence action against VIOTR in % (Viola tricolor (VIOTR); 320 g/ha)
100%: Pre-emergence action against ECHCG in % ([3]; dosage 80 g/ha) | Pre-emergence action against ECHCG in % ([3]; dosage 320 g/ha) | Pre-emergence action against LOLRI in % (Lolium rigidum (LOLRI); dosage 80 g/ha) | Pre-emergence action against LOLRI in % (Lolium rigidum (LOLRI); dosage 320 g/ha) | Pre-emergence action against VERPE in % ([6]; dosage 80 g/ha) | Pre-emergence action against VERPE in % ([6]; dosage 320 g/ha) | Pre-emergence action against ALOMY ([8]; 320 g/ha)
90%: Pre-emergence action against PHBPU in % ([2]; dosage 80 g/ha) | Pre-emergence action against PHBPU in % ([2]; dosage 320 g/ha) | Pre-emergence action against MATIN in % ([5]; dosage 80 g/ha) | Pre-emergence action against MATIN in % ([5]; dosage 320 g/ha) | Pre-emergence action against ALOMY ([8]; 80 g/ha)

CCOC(=O)COc1nn(-c2ncccc2F)c(-c2cncc(F)c2)c1C1CC1 [Example I-174]
90%: Pre-emergence action against PHBPU in % ([2]; dosage 80 g/ha) | Pre-emergence action against PHBPU in % ([2]; dosage 320 g/ha) | Pre-emergence action against MATIN in % ([5]; dosage 80 g/ha) | Pre-emergence action against MATIN in % ([5]; dosage 320 g/ha) | Pre-emergence action against ALOMY ([8]; 80 g/ha)
80%: Post-emergence action against ABUTH in % ([1]; 80 g/ha) | Post-emergence action against ABUTH in % ([1]; 320 g/ha) | Post-emergence action against AMARE in % [4, 9] | Post-emergence action against AMARE in % [4, 10] | Post-emergence action against VERPE in % ([7]; 320 g/ha, VERPE) | Post-emergence action against VERPE in % ([7]; dosage 80 g/ha) | Post-emergence action against VIOTR in % (Viola tricolor (VIOTR); 80 g/ha) | Post-emergence action against VIOTR in % (Viola tricolor (VIOTR); 320 g/ha)
100%: Pre-emergence action against ECHCG in % ([3]; dosage 80 g/ha) | Pre-emergence action against ECHCG in % ([3]; dosage 320 g/ha) | Pre-emergence action against LOLRI in % (Lolium rigidum (LOLRI); dosage 80 g/ha) | Pre-emergence action against LOLRI in % (Lolium rigidum (LOLRI); dosage 320 g/ha) | Pre-emergence action against VERPE in % ([6]; dosage 80 g/ha) | Pre-emergence action against VERPE in % ([6]; dosage 320 g/ha) | Pre-emergence action against ALOMY ([8]; 320 g/ha)

O=C(O)COc1nn(-c2ncccc2F)c(-c2cncc(F)c2)c1C1CC1 [Example I-175]
90%: Pre-emergence action against PHBPU in % ([2]; dosage 320 g/ha) | Pre-emergence action against MATIN in % ([5]; dosage 80 g/ha) | Pre-emergence action against MATIN in % ([5]; dosage 320 g/ha)
80%: Post-emergence action against ABUTH in % ([1]; 80 g/ha) | Post-emergence action against ABUTH in % ([1]; 320 g/ha) | Pre-emergence action against PHBPU in % ([2]; dosage 80 g/ha) | Post-emergence action against AMARE in % [4, 9] | Post-emergence action against AMARE in % [4, 10] | Post-emergence action against VERPE in % ([7]; 320 g/ha, VERPE) | Post-emergence action against VERPE in % ([7]; dosage 80 g/ha) | Post-emergence action against VIOTR in % (Viola tricolor (VIOTR); 80 g/ha) | Post-emergence action against VIOTR in % (Viola tricolor (VIOTR); 320 g/ha)
100%: Pre-emergence action against ECHCG in % ([3]; dosage 80 g/ha) | Pre-emergence action against ECHCG in % ([3]; dosage 320 g/ha) | Pre-emergence action against LOLRI in % (Lolium rigidum (LOLRI); dosage 80 g/ha) | Pre-emergence action against LOLRI in % (Lolium rigidum (LOLRI); dosage 320 g/ha) | Pre-emergence action against VERPE in % ([6]; dosage 80 g/ha) | Pre-emergence action against VERPE in % ([6]; dosage 320 g/ha) | Pre-emergence action against ALOMY ([8]; 80 g/ha) | Pre-emergence action against ALOMY ([8]; 320 g/ha)

CCOC(=O)[C@@H](C)Oc1nn(-c2ccccn2)c(-c2cncc(F)c2)c1Cl [Example I-184]
100%: Pre-emergence action against ECHCG in % ([3]; dosage 320 g/ha) | Pre-emergence action against LOLRI in % (Lolium rigidum (LOLRI); dosage 80 g/ha) | Pre-emergence action against LOLRI in % (Lolium rigidum (LOLRI); dosage 320 g/ha) | Pre-emergence action against VERPE in % ([6]; dosage 320 g/ha) | Pre-emergence action against ALOMY ([8]; 320 g/ha)
80%: Post-emergence action against ABUTH in % ([1]; 80 g/ha) | Pre-emergence action against PHBPU in % ([2]; dosage 80 g/ha) | Post-emergence action against AMARE in % [4, 9] | Post-emergence action against AMARE in % [4, 10] | Post-emergence action against VIOTR in % (Viola tricolor (VIOTR); 80 g/ha)
90%: Post-emergence action against ABUTH in % ([1]; 320 g/ha) | Pre-emergence action against PHBPU in % ([2]; dosage 320 g/ha) | Pre-emergence action against ECHCG in % ([3]; dosage 80 g/ha) | Pre-emergence action against MATIN in % ([5]; dosage 80 g/ha) | Pre-emergence action against MATIN in % ([5]; dosage 320 g/ha) | Pre-emergence action against VERPE in % ([6]; dosage 80 g/ha) | Post-emergence action against VERPE in % ([7]; 320 g/ha, VERPE) | Post-emergence action against VERPE in % ([7]; dosage 80 g/ha) | Post-emergence action against VIOTR in % (Viola tricolor (VIOTR); 320 g/ha) | Pre-emergence action against ALOMY ([8]; 80 g/ha)
